This note sets out measurements from patent US20250289789A1, “REVERSIBLE LYSINE COVALENT MODIFIERS OF CDK2 AND USES THEREOF” (Terremoto Biosciences, Inc., priority 2023, published 2025).

Experiment [1] deals with T1, CDK1-NanoLuc fusion with CCNB1 in 293T or 293 cells (Homo sapiens, UniProt P06493).
T1 construct: host or cells: 293T (ATCC CRL-3216) or 293 (ATCC CRL-1573)
As to the kind of experiment: NanoBRET Target Engagement (TE) Intracellular Kinase Assay, CDK1/CCNB1. It is filed as cell-based. The conditions noted are these: NanoBRET TE intracellular kinase assay, 2-hour incubation, read-out: NanoBRET-CDK1/B1 IC50. The procedure, abridged: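 293T or 293 cells co-transfected with CDK1-NanoLuc and CCNB1 vectors, incubated 24 h, then exposed to NanoBRET Tracer K-10 plus compound for 2 h at 37° C. BRET ratio (610/450 nm) normalized to DMSO; IC50 from four-parameter logistic fit.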
(BRET reads energy transfer from a luciferase to a nearby fluorophore.)

The target of experiment [2] is pCDK2-CCNE1 proteins (Homo sapiens, UniProt P24941). The experiment can be described thus: Identification of covalent binding by intact mass spectrometry, with and without competitor PF-06873600. The settings on record: for Observed mass value of the covalent complex between compound and CDK2 protein: intact mass spectrometry after borohydride reduction, unmodified CDK2 34096-34097 Da; for Covalent complex formation with CDK2 protein (intact mass spectra after sodium borohydride reduction): 1 hour at room temperature or 37° C., no competitor. Here is the method: pCDK2-CCNE1 proteins (1 μM) were treated with a compound (1.5 μM) from Table 4 for 1 hour at room temperature or 37° C., with and without competitor molecule PF-06873600 (20 μM final concentration) as a specificity control. As used herein, the competitor molecule is
As used herein, the competitor molecule is 6-(difluoromethyl)-8-((1R,2R)-2-hydroxy-2-methylcyclopentyl)-2-((1-(methylsulfonyl)piperidin-4-yl)amino)pyrido[2,3-d]pyrimidin-7(8H)-one (PF-06873600). Reversible imines were captured by reductive amination with the addition of 5 mM sodium borohydride at room temperature for 5 min. Reduction reactions were quenched by diluting the sample in equal volume of 1% trifluoroacetic acid (v/v) in acetonitrile, then analyzed by LC-MS. Deconvoluted monoisotopic intensities of unmodified and compound-modified mass peaks were compared.
FIGS. 1A to 1P provide intact mass spectra for pCDK2-CCNE1 proteins after incubation with compounds of the present disclosure and subsequent sodium borohydride reduction. […] Further, FIGS. 1A to 1P each provide intact mass spectra following the incubation of pCDK2-CCNE1 proteins with a compound of the present disclosure both in the absence of a competitor molecule (i.e., PF-06873600, a molecule known to bind to and inhibit the function of CDK2); and in the presence of a significant stoichiometric excess of a competitor molecule PF-06873600.
FIGS. 2A to 2N provide intact mass spectra for pCDK2-CCNE1 proteins after incubation with compounds of the present disclosure and subsequent sodium borohydride reduction.

In experiment [3] the target is T2, CDK4-NanoLuc fusion with CCND1 in 293T or 293 cells (Homo sapiens, UniProt P11802).
T2 construct: host or cells: 293T (ATCC CRL-3216) or 293 (ATCC CRL-1573)
T2 sequence (P11802 whole entry, the tested form may be a part): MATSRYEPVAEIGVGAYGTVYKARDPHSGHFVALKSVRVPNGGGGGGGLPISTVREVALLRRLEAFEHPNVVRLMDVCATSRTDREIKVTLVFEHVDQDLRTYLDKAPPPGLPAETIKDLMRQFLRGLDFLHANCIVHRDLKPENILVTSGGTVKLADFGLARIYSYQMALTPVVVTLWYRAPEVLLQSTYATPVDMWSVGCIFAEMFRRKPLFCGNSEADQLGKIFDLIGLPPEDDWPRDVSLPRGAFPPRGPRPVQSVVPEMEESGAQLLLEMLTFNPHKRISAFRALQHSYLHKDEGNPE
T2 sequence (P24385 whole entry partner, the tested form may be a part): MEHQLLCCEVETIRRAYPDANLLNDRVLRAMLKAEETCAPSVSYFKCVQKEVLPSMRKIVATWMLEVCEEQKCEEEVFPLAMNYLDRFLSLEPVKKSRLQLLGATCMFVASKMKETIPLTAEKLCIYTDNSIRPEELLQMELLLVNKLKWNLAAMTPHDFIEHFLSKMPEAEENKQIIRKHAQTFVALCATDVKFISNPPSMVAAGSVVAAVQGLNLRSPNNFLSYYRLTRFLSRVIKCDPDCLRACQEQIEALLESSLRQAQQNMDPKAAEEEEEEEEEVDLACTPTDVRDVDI
The experiment can be described thus: NanoBRET Target Engagement (TE) Intracellular Kinase Assay, CDK4/CCND1. Format: cell-based. The settings on record: NanoBRET TE intracellular kinase assay, 2-hour incubation, read-out: NanoBRET-CDK4/D1 IC50.

Experiment [4] relates to Phospho-Rb Ser807/811 in OVCAR3 cells. The experiment can be described thus: OVCAR3 Phospho-Rb Ser807/811 HTRF assay. The conditions noted are these: Homo sapiens, OVCAR-3, 1 h, OVCAR3 cells, Phospho-Rb Ser807/811 HTRF, 1 hour incubation; read-out: pRb-OVCAR3 IC50. Format: cell-based. Here is the method: Cells were trypsinized and resuspended in 1 mM hydroxyurea (Sigma; H8627), 90% RPMI and 10% fetal bovine serum. […] Dose response curve normalized to DMSO control was plotted using four-parameter logistic model for IC50 calculation.

Experiment [5] has as its target T3, CDK2-NanoLuc fusion with CCNE1 in 293T or 293 cells (Homo sapiens, UniProt P24941).
T3 construct: host or cells: 293T (ATCC CRL-3216) or 293 (ATCC CRL-1573)
The experiment can be described thus: NanoBRET Target Engagement (TE) Intracellular Kinase Assay, CDK2/CCNE1. Format: cell-based. The settings on record: NanoBRET TE intracellular kinase assay, 2-hour incubation, read-out: NanoBRET-CDK2/E1 IC50.

[6] abbreviates: pCDK2-CCNE1 1 μM, compound 1.5 μM.

Entries after “also recorded” stand apart in the source; their conditions may differ.

T1 sequence (P06493 whole entry, the tested form may be a part): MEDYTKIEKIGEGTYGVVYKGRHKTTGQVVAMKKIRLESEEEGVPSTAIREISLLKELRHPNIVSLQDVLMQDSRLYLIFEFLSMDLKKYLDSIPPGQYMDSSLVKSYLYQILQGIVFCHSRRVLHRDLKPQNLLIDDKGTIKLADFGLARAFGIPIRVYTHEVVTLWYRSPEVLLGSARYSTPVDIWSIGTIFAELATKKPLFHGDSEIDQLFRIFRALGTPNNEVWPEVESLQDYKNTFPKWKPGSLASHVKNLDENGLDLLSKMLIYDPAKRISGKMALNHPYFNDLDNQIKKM
T1 sequence (P14635 whole entry partner, the tested form may be a part): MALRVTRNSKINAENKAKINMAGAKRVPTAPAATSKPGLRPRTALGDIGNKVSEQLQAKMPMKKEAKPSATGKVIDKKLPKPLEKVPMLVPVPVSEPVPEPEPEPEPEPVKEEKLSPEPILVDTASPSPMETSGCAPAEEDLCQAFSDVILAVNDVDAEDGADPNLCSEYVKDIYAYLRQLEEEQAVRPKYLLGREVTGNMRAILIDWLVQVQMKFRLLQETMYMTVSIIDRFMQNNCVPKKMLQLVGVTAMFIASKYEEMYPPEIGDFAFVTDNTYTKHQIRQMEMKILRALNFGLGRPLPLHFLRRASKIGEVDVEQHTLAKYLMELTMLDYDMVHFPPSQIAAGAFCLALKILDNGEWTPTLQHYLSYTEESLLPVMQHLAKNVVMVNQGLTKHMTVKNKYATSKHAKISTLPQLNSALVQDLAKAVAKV

On to `COc1cc(O)c(C=O)c([C@@H]2C[C@H]2C(=O)Nc2cc([C@H]3CC[C@@H](OC(=O)NC(C)C)C3)[nH]n2)c1` (mixture of isomers) [Compound 89, (1R,3S)-3-{5-[trans-2-(2-formyl-3-hydroxy-5-methoxyphenyl)cyclopropaneamido]-2H-pyrazol-3-yl}cyclopentyl N-isopropylcarbamate], for which the IC50 was 11.3 nM in experiment [1], 1280 nM in experiment [3], 44.7 nM in experiment [4] and 2.27 nM in experiment [5]. In experiment [2], the “Observed mass value of the covalent complex between compound and CDK2 protein” value turned out to be 34550 Da. Also, the “Covalent complex formation with CDK2 protein (intact mass spectra after sodium borohydride reduction)” value in experiment [2] (setting [6]) is listed as “resulted in covalent complex formation”.

As for `CC(C)NC(=O)O[C@@H]1CC[C@H](c2cc(NC(=O)COc3cccc(O)c3C=O)n[nH]2)C1` [Compound 11, (1R,3S)-3-{5-[2-(2-formyl-3-hydroxyphenoxy)acetamido]-2H-pyrazol-3-yl}cyclopentyl N-isopropylcarbamate], the IC50 is 17.3 nM in experiment [1], > 9900 nM in experiment [3], 102 nM in experiment [4] and 3.72 nM in experiment [5]. The “Observed mass value of the covalent complex between compound and CDK2 protein” value in experiment [2] is on record as 34511 Da. In addition, in experiment [2] (setting [6]), the “Covalent complex formation with CDK2 protein (intact mass spectra after sodium borohydride reduction)” value is reported as “formed a covalent complex with CDK2 protein; also recorded: resulted in covalent complex formation”. In experiment [2] (pCDK2-CCNE1 1 μM, compound 1.5 μM, competitor PF-06873600 20 μM), the “Binding pocket by competition: complex formation in presence of molar excess PF-06873600” value is recorded as “bound to the same binding pocket of CDK2 as the competitor molecule PF-06873600”.

Regarding `CC(C)c1ccc(O[C@@H]2CC[C@H](c3cc(NC(=O)CCc4cccc(O)c4C=O)n[nH]3)C2)nn1` [Compound 14, 3-(2-formyl-3-hydroxyphenyl)-N-{5-[(1S,3R)-3-[(6-isopropylpyridazin-3-yl)oxy]cyclopentyl]-1H-pyrazol-3-yl}propanamide], the IC50 stood at 1690 nM in experiment [1], 779 nM in experiment [3] and 138 nM in experiment [5]. Besides, the “Covalent complex formation with CDK2 protein (intact mass spectra after sodium borohydride reduction)” value in experiment [2] (setting [6]) was “resulted in covalent complex formation”.

As for `CC1(NC(=O)O[C@@H]2CC[C@H](c3cc(NC(=O)CCc4cccc(O)c4C=O)n[nH]3)C2)CC1` [Compound 23, (1R,3S)-3-(3-(3-(2-formyl-3-hydroxyphenyl)propanamido)-1H-pyrazol-5-yl)cyclopentyl (1-methylcyclopropyl)carbamate trifluoroacetic acid], the IC50 in experiment [1] amounted to 125 nM; in experiment [3], 969 nM; in experiment [5], 10.9 nM. Further, in experiment [2] (setting [6]), the “Covalent complex formation with CDK2 protein (intact mass spectra after sodium borohydride reduction)” value is given as “resulted in covalent complex formation”.

`COc1cc(O)c(C=O)c(OCC(=O)Nc2cc([C@H]3CC[C@@H](OC(=O)N4CCCC4(C)C)C3)[nH]n2)c1` [Compound 243]: the IC50 came to 2.41 nM in experiment [1], 484 nM in experiment [3], 17.6 nM in experiment [4] and 2.23 nM in experiment [5].

Take `COc1cc(O)c(C=O)c(OCC(=O)Nc2cc([C@H]3CC[C@@H](OC(=O)N(C)C(C)C)C3)[nH]n2)c1` [Compound 244, (1R,3S)-3-{5-[2-(2-formyl-3-hydroxy-5-methoxyphenoxy)acetamido]-2H-pyrazol-3-yl}cyclopentyl N-isopropyl-N-methylcarbamate]: the IC50 in experiment [1] came to 4.17 nM; in experiment [3], 1320 nM; in experiment [4], 21.2 nM; in experiment [5], 1.42 nM.

On to `COc1cc(O)c(C=O)c(OCC(=O)Nc2cc([C@H]3CC[C@@H](OC(=O)N4CCC[C@@H]4C)C3)[nH]n2)c1` [Compound 245], for which the IC50 was 3.95 nM in experiment [1], 723 nM in experiment [3], 25.4 nM in experiment [4] and 3.12 nM in experiment [5].

Take `COc1cc(O)c(C=O)c(OCC(=O)Nc2cc([C@H]3CC[C@@H](OC(=O)N4CCC(F)(F)C4)C3)[nH]n2)c1` [Compound 246]: the IC50 in experiment [1] was 9.45 nM; in experiment [3], 6110 nM; in experiment [4], 33 nM; in experiment [5] it was 2.78 nM.

`COc1cc(O)c(C=O)c(OCC(=O)Nc2cc([C@@H]3CC[C@H](OC(=O)NC(C)C)C3)[nH]n2)c1` [Compound 247]: the IC50 stood at 19.4 nM in experiment [1], 7210 nM in experiment [3], 101 nM in experiment [4] and 15.8 nM in experiment [5].

Regarding `CC(C)NC(=O)O[C@@H]1CC[C@H](c2cc(NC(=O)COc3cc(F)cc(O)c3C=O)n[nH]2)C1` [Compound 248], the IC50 in experiment [1] was 106 nM; in experiment [3], 575 nM; in experiment [4], 1950 nM; in experiment [5], 20.2 nM.

Turning to `COc1cc(O)c(C=O)c(OCC(=O)Nc2cc([C@H]3CC[C@@H](OC(=O)NC45CC(C4)C5)C3)[nH]n2)c1` [Compound 249, (1R,3S)-3-{5-[2-(2-formyl-3-hydroxy-5-methoxyphenoxy)acetamido]-2H-pyrazol-3-yl}cyclopentyl N-{bicyclo[1.1.1]pentan-1-yl}carbamate], the IC50 in experiment [1] was found to be 4.5 nM; in experiment [3] it was 1190 nM; in experiment [4], 26.6 nM; in experiment [5], 1.5 nM.

On to `CC(C)NC(=O)O[C@@H]1CC[C@H](c2cc(NC(=O)COc3cc(OC(C)C)cc(O)c3C=O)n[nH]2)C1` [Compound 250], for which the IC50 is 37.3 nM in experiment [1], 9240 nM in experiment [3], 65.8 nM in experiment [4] and 1.86 nM in experiment [5].

`COc1cc(O)c(C=O)c(OCC(=O)Nc2cc([C@H]3CC[C@@H](OC(=O)NC4(C)CC4)C3)[nH]n2)c1` [Compound 251, (1R,3S)-3-(3-(2-(2-formyl-3-hydroxy-5-methoxyphenoxy)acetamido)-1H-pyrazol-5-yl)cyclopentyl (1-methylcyclopropyl)carbamate]: the IC50 in experiment [1] was found to be 4.13 nM; in experiment [3], 966 nM; in experiment [4], 15.1 nM; in experiment [5], 1.22 nM.

Consider `Cc1cc(O)c(C=O)c(O[C@@H](C)C(=O)Nc2cc([C@H]3CC[C@@H](OC(=O)NC(C)C)C3)[nH]n2)c1` [Compound 252], for which the IC50 in experiment [1] was determined as 30.6 nM; in experiment [3], 4090 nM; in experiment [4] it was 326 nM; in experiment [5] it was 6.48 nM.

Consider `C#CCNC(=O)O[C@@H]1CC[C@H](c2cc(NC(=O)COc3cc(OC)cc(O)c3C=O)n[nH]2)C1` [Compound 253], for which the IC50 in experiment [1] was found to be 18.4 nM; in experiment [3] it was 5100 nM; in experiment [4], 28.7 nM; in experiment [5], 2.65 nM.

For the compound `COc1cc(O)c(C=O)c(OCC(=O)Nc2cc([C@H]3CC[C@@H](OC(=O)NC4(C)CCC4)C3)[nH]n2)c1` [Compound 254], the IC50 in experiment [1] was determined as 2.8 nM; in experiment [3], 778 nM; in experiment [4], 21.4 nM; in experiment [5] it was 2.28 nM.

With `COc1cc(O)c(C=O)c(OCC(=O)Nc2cc([C@H]3CC[C@@H](OC(=O)N4CCCC4)C3)[nH]n2)c1` [Compound 255, (1R,3S)-3-(3-(2-(2-formyl-3-hydroxy-5-methoxyphenoxy)acetamido)-1H-pyrazol-5-yl)cyclopentyl pyrrolidine-1-carboxylate], the IC50 in experiment [1] was found to be 10.9 nM; in experiment [3], 4270 nM; in experiment [4], 32.8 nM; in experiment [5], 2.24 nM.

`CC(C)NC(=O)O[C@@H]1CC[C@H](c2cc(NC(=O)COc3cc(-n4cccn4)cc(O)c3C=O)n[nH]2)C1` [Compound 257]: the IC50 in experiment [1] was 703 nM; in experiment [3], > 10000 nM; in experiment [4] it was 2490 nM; in experiment [5], 10.5 nM.
